In patent publication US10183944B2 (Asana Biosciences, LLC, priority 2011, dated 2019):
pEC50, pIC50: −log10 of the molar value. Where a name gives a salt, the structure may show the parent alone. Read-outs that look alike come from different tables or passages of the source.

Key:
JAK2 = JAK2 (Homo sapiens (Human), UniProt O60674); experiment: Inhibition of enzymatic JAK2 kinase activity (TR-FRET); type: biochemical; conditions: read-out: IC50 JAK
Outline: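 Enzyme preincubated with compound 30 min at RT, then Ulight-poly-GT substrate and ATP added for 60 min at RT. EDTA stop, Eu-antiphosphotyrosine antibody; TR-FRET ratio 665/615 nm (ex 340 nm), blank-corrected; % inhibition versus positive control.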

[1] = molecular target: Syk (356-635 amino acids) catalytic domain (Homo sapiens (Human), UniProt P43405); experiment: Inhibition of enzymatic Syk kinase activity (radiometric); type: biochemical; conditions: read-out: IC50 Syk
Outline: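 Human Syk (356-635) kinase domain (0.035–7.5 ng/reaction) preincubated with compound 30 minutes at room temperature, then reacted with pG4T substrate, 100 μM ATP (stock) and γ-32P-ATP for 10 minutes at 30° C. Reaction stopped with HCl/ATP, spotted on P81 paper, washed and counted by scintillation. Percent inhibition versus no-compound counts.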

RBL2H3 cells = experiment: Degranulation assay: β-hexosaminidase release during immune complex mediated degranulation; type: cell-based, rat; conditions: Rattus norvegicus, RBL-2H3; for inhibition at 1 µM: read-out: Degranulation % inhibition at 1 μM; for pEC50: read-out: Degranulation EC50
Outline: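 RBL2H3 cells sensitized overnight (or 24 h) with anti-DNP rat IgE, pretreated 15 min with compounds in 0.5% DMSO, then challenged with DNP-BSA for 45–60 min. β-Hexosaminidase in supernatant read fluorometrically (Ex 355/Em 460 nm) with β-NAG substrate, 30 min RT; % release/inhibition calculated.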

[2] = Assay Protocol B (96 well format)
[3] = Assay Protocol A (24 well format)

Chain of JAK2 (O60674 808-1132): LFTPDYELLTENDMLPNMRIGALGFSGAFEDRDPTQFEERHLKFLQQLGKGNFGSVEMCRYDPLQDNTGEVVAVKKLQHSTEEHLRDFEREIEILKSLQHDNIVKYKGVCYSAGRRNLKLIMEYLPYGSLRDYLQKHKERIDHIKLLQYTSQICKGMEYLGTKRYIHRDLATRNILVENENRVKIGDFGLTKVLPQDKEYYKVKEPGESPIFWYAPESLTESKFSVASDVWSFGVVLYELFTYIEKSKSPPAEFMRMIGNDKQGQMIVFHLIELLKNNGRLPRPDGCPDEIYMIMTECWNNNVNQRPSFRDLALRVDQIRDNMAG

Row | Compound | pIC50 (JAK2) | pIC50 [1] | inhibition at 1 µM (RBL2H3 cells; [2]) | inhibition at 1 µM (RBL2H3 cells; [3]) | pEC50 (RBL2H3 cells; [2]) | pEC50 (RBL2H3 cells; [3])
1 | O=C(O)CC1CCN(c2nc(Nc3ccc(CN4CCNCC4)cc3)c3c(=O)[nH]ncc3n2)CC1 [Example 43, 2-(1-(5-oxo-4-((4-(piperazin-1-ylmethyl)phenyl)amino)-5,6-dihydropyrimido[4,5-d]pyridazin-2-yl)piperidin-4-yl)acetic acid hydrochloride] | > 7.00 | > 7.30 | 13% |  |  | 
2 | CCN1CCN(Cc2ccc(Nc3nc(-c4ccccc4)nc4cn[nH]c(=O)c34)cc2)CC1 [Example 6, 4-(4-((4-ethylpiperazin-1-yl)methyl)phenylamino)-2-phenylpyrimido[4,5-d]pyridazin-5(6H)-one] | > 7.30 | > 7.30 |  | 50% |  | 
3 | CC(C)N(c1nc(Nc2ccc(CN3CCNCC3)cc2)c2c(=O)[nH]ncc2n1)C(C)C [Example 54, 2-(diisopropylamino)-4-((4-(piperazin-1-ylmethyl)phenyl)amino)pyrimido[4,5-d]pyridazin-5(6H)-one hydrochloride] | > 8.00 | > 8.00 | 100% |  | 7.89 | 
4 | O=C(O)C[C@H]1CC[C@@H](c2ccc(Nc3nc(N4CCCCCC4)nc4cn[nH]c(=O)c34)cc2)CC1 [Example 123, 2-((1S,4S)-4-(4-((2-(azepan-1-yl)-5-oxo-5,6-dihydropyrimido[4,5-d]pyridazin-4-yl)amino)phenyl)cyclohexyl)acetic acid] | > 8.00 | > 8.00 | 90% |  | 6.94 | 
5 | O=c1[nH]ncc2nc(-c3ccccc3)nc(Nc3ccc(N(CCO)CCO)cc3)c12 [Example 10, 4-(4-(bis(2-hydroxyethyl)amino)phenylamino)-2-phenylpyrimido[4,5-d]pyridazin-5(6H)-one] | > 7.00 | > 7.30 |  | 100% |  | 
6 | O=c1[nH]ncc2nc(N3CCCCC3)nc(Nc3ccc(OCCN4CCNCC4)cc3)c12 [Example 153, 4-((4-(2-(piperazin-1-yl)ethoxy)phenyl)amino)-2-(piperidin-1-yl)pyrimido[4,5-d]pyridazin-5(6H)-one] | > 7.00 | > 7.30 | 47% |  | 6.49 | 
7 | O=C(O)C1CCN(CCOc2ccc(Nc3nc(N4CCCCCC4)nc4cn[nH]c(=O)c34)cc2)CC1 [Example 98, 1-(2-(4-((2-(azepan-1-yl)-5-oxo-5,6-dihydropyrimido[4,5-d]pyridazin-4-yl)amino)phenoxy)ethyl)piperidine-4-carboxylic acid] | > 7.30 | > 7.30 | 62% |  | 6.23 | 
8 | N#CCC1CCN(c2nc(Nc3ccc(OCCN)cc3)c3c(=O)[nH]ncc3n2)CC1 [Example 200, 2-(1-(4-((4-(2-aminoethoxy)phenyl)amino)-5-oxo-5,6-dihydropyrimido[4,5-d]pyridazin-2-yl)piperidin-4-yl) acetonitrile] | > 7.30 | > 8.00 | 71% |  | 7.18 | 
9 | N#CCC1CCN(c2nc(Nc3ccc(N4CCNCC4)cc3)c3c(=O)[nH]ncc3n2)CC1 [Example 193, 2-(1-(5-oxo-4-((4-(piperazin-1-yl)phenyl)amino)-5,6-dihydropyrimido[4,5-d]pyridazin-2-yl)piperidin-4-yl)acetonitrile] | > 8.00 | > 8.00 | 93% |  | 7.77 | 
10 | O=C(O)CN1CCC(Oc2ccc(Nc3nc(N4CCCCCC4)nc4cn[nH]c(=O)c34)cc2)CC1 [Example 254, 2-(4-(4-((2-(azepan-1-yl)-5-oxo-5,6-dihydropyrimido[4,5-d]pyridazin-4-yl)amino)phenoxy)piperidin-1-yl) acetic acid] | > 7.30 | > 8.00 | 24% |  | 5.92 | 
11 | CC(C)(O)C1CCN(c2ccc(Nc3nc(N4CCC(CC#N)CC4)nc4cn[nH]c(=O)c34)cc2)CC1 [Example 146, 2-(1-(4-((4-(4-(2-hydroxypropan-2-yl)piperidin-1-yl)phenyl)amino)-5-oxo-5,6-dihydropyrimido[4,5-d]pyridazin-2-yl)piperidin-4-yl)acetonitrile] | > 7.30 | > 8.00 | 66% |  | 7.59 | 
12 | COC1CCN(c2ccc(Nc3nc(N4CCC(CC#N)CC4)nc4cn[nH]c(=O)c34)cc2)CC1 [Example 287, 2-(1-(4-((4-(4-methoxypiperidin-1-yl)phenyl)amino)-5-oxo-5,6-dihydropyrimido[4,5-d]pyridazin-2-yl)piperidin-4-yl)acetonitrile] | > 7.30 | > 7.30 | 97% |  | 7.70 | 
13 | O=c1[nH]ncc2nc(N3CCCCCC3)nc(Nc3ccc(OC4CCN(CCO)CC4)cc3)c12 [Example 329, 2-(azepan-1-yl)-4-((4-((1-(2-hydroxyethyl)piperidin-4-yl)oxy)phenyl)amino) pyrimido[4,5-d]pyridazin-5(6H)-one] | > 8.00 | > 8.00 | 69% |  | 7.21 | 
14 | CC1(O)CCN(CCOc2ccc(Nc3nc(N4CCC(CC#N)CC4)nc4cn[nH]c(=O)c34)cc2)CC1 [Example 185, 2-(1-(4-((4-(2-(4-hydroxy-4-methylpiperidin-1-yl)ethoxy)phenyl)amino)-5-oxo-5,6-dihydropyrimido[4,5-d]pyridazin-2-yl)piperidin-4-yl)acetonitrile] | > 7.30 | > 8.00 | 83% |  | 7.54 | 
15 | O=C(c1ccc(Nc2nc(N3CCCCCC3)nc3cn[nH]c(=O)c23)cc1)N1CCNCC1 [Example 104, 2-(azepan-1-yl)-4-((4-(piperazine-1-carbonyl)phenyl)amino)pyrimido[4,5-d]pyridazin-5(6H)-one hydrochloride] | > 8.00 | > 7.30 | 100% |  | 6.96 | 
16 | N#CCC1CCN(c2nc(Nc3ccc(N4CCCN(CCO)CC4)cc3)c3c(=O)[nH]ncc3n2)CC1 [Example 264, 2-(1-(4-((4-(4-(2-hydroxyethyl)-1,4-diazepan-1-yl)phenyl)amino)-5-oxo-5,6-dihydropyrimido[4,5-d]pyridazin-2-yl)piperidin-4-yl)acetonitrile] | > 8.00 | > 8.00 | 75% |  | 7.27 | 
17 | O=c1[nH]ncc2nc(N3CCCCCC3)nc(Nc3ccc(CCCN4CCC(O)CC4)cc3)c12 [Example 179, 2-(azepan-1-yl)-4-((4-(3-(4-hydroxypiperidin-1-yl)propyl)phenyl)amino)pyrimido[4,5-d]pyridazin-5(6H)-one] | > 8.00 | > 8.00 | 45% |  | 8.05 | 
18 | O=c1[nH]ncc2nc(-c3ccccc3)nc(Nc3ccc(N4CCNCC4)cc3)c12 [Example 8, 2-phenyl-4-(4-(piperazin-1-yl)phenylamino)pyrimido[4,5-d]pyridazin-5(6H)-one] | > 8.00 | > 8.00 |  | 98% |  | 
19 | O=c1[nH]ncc2nc(N3CCCCC3)nc(Nc3ccc(CN4CCNCC4)cc3)c12 [Example 30, 4-(4-(piperazin-1-ylmethyl)phenylamino)-2-(piperidin-1-yl)pyrimido[4,5-d]pyridazin-5(6H)-one hydrochloride] | > 7.30 | > 7.30 | 99% |  |  | 
20 | O=C(O)C1CC12CCN(c1nc(Nc3ccc(CN4CCNCC4)cc3)c3c(=O)[nH]ncc3n1)CC2 (centres unmarked) [Example 25, 6-(5-oxo-4-(4-(piperazin-1-ylmethyl)phenylamino)-5,6-dihydropyrimido[4,5-d]pyridazin-2-yl)-6-azaspiro[2.5]octane-1-carboxylic acid hydrochloride] | > 7.00 | > 7.30 |  | 79% |  | 
21 | N#CCC1CCN(c2nc(Nc3ccc(N4CCN(CCF)CC4)cc3)c3c(=O)[nH]ncc3n2)CC1 [Example 276, 2-(1-(4-((4-(4-(2-fluoroethyl)piperazin-1-yl)phenyl)amino)-5-oxo-5,6-dihydropyrimido[4,5-d]pyridazin-2-yl)piperidin-4-yl)acetonitrile] | > 7.30 | > 8.00 | 91% |  | 7.62 | 
22 | O=c1[nH]ncc2nc(N3CCCCCC3)nc(Nc3ccc(OC4CCNCC4)cc3)c12 [Example 292, 2-(azepan-1-yl)-4-((4-(piperidin-4-yloxy)phenyl)amino)pyrimido[4,5-d]pyridazin-5(6H)-one hydrochloride] | > 8.00 | > 8.00 | 65% |  | 7.08 | 
23 | CCN1CCN(c2ccc(Nc3nc(-c4ccccc4)nc4cn[nH]c(=O)c34)cc2)CC1 [Example 5, 4-(4-(4-ethylpiperazin-1-yl)phenylamino)-2-phenylpyrimido[4,5-d]pyridazin-5(6H)-one] | > 7.30 | > 8.00 |  | 100% |  | 7.41
24 | CCN1CCN(c2ccc(Nc3nc(N4CCOCC4)nc4cn[nH]c(=O)c34)cc2)CC1 [Example 26, 4-(4-(4-ethylpiperazin-1-yl)phenylamino)-2-morpholinopyrimido[4,5-d]pyridazin-5(6H)-one] | > 7.00 | > 8.00 | 67% |  |  | 
